Counter-ions that a name gives are not always drawn.
Columns and labels:
Details in all cases: 20-22 d
[1] = tested on: VIOTR = Viola tricolor (wild pansy); experiment: Postemergence herbicidal activity, greenhouse, visual injury; format: in vivo
Experimental: (§1) Seeds of the desired test plant species were planted in Sun Gro MetroMix® 306 planting mixture, which typically has a pH of 6.0 to 6.8 and an organic matter content of about 30 percent, in plastic pots with a surface area of 103.2 square centimeters (cm^2). When required to ensure good germination and healthy plants, a fungicide treatment and/or other chemical or physical treatment was applied. The plants were grown for 7-36 days (d) in a greenhouse with an approximate […] photoperiod which was maintained at about 18° C. during the day and 17° C. during the night. Nutrients and water were added on a regular basis and supplemental lighting was provided with overhead metal halide 1000-Watt lamps as necessary. The plants were employed for testing when they reached the second or third true leaf stage.
(§2) Weighed amounts of esters (methyl) or salts (TEA [triethylammonium], potassium [K]) of 4-amino-3-chloro-6-(4-chloro-2-fluoro-3-methoxyphenyl)pyridine-2-carboxylic acid (Compound 1) were dissolved in a volume of 97:3 volume/volume (v/v) acetone/dimethylsulfoxide (DMSO) to obtain stock solutions. […] The concentrated stock solutions were diluted with an aqueous mixture of 1.5% v/v of Agri-dex crop oil concentrate to provide the appropriate application rates. Compound requirements are based upon a 12 mL application volume at a rate of 187 liters per hectare (L/ha). Stocks solutions of the safeners were prepared following the same procedure. Spray solutions of the safeners and experimental compound mixtures were prepared by adding the appropriate volume of both stock solutions to the appropriate amount of dilution solution to form a 12 mL spray solution with active ingredients in two-way combinations. Formulated compounds were applied to the plant material with an overhead Mandel track sprayer equipped with 8002E nozzles calibrated to deliver 187 L/ha over an application area of 0.503 square meters (m^2) at a spray height of 18 inches (43 centimeters (cm)) above average plant canopy. Control plants were sprayed in the same manner with the solvent blank.
(§3) The treated plants and control plants were placed in a greenhouse as described above and watered by sub-irrigation to prevent wash-off of the test compounds. After 20-22 d, the condition of the test plants as compared with that of the control plants was determined visually and scored on a scale of 0 to 100 percent where 0 corresponds to no injury and 100 corresponds to complete kill.
(§4) Colby's equation was used to determine the herbicidal effects expected from the mixtures (Colby, S. R., Calculation of the synergistic and antagonistic response of herbicide combinations. Weeds 1967, 15, 20-22.).
(§5) The following equation was used to calculate the expected activity of mixtures containing two active ingredients, A and B: Expected=A+B−(A×B/100)
(§6) A=observed efficacy of active ingredient A at the same concentration as used in the mixture.
(§7) B=observed efficacy of active ingredient B at the same concentration as used in the mixture.

[2] = tested on: STEME = Stellaria media (common chickweed); experiment: as above; format: in vivo
Experimental: as §1, §2, §3, §4, §5, §6, §7

[3] = tested on: VERPE = Veronica persica (bird's-eye speedwell); experiment: as above; format: in vivo
Experimental: as §1, §2, §3, §4, §5, §6, §7

[4] = tested on: MATCH = Matricaria chamomila (scented mayweed); experiment: as above; format: in vivo
Experimental: as §1, §2, §3, §4, §5, §6, §7

[5] = tested on: GALAP = Galium aparine (cleavers); experiment: as above; format: in vivo
Experimental: as §1, §2, §3, §4, §5, §6, §7

[6] = tested on: KCHSC = Kochia scoparia (kochia); experiment: as above; format: in vivo
Experimental: as §1, §2, §3, §4, §5, §6, §7

[7] = tested on: SASKR = Salsola iberica (Russian thistle); experiment: as above; format: in vivo
Experimental: as §1, §2, §3, §4, §5, §6, §7

[8] = tested on: LAMPU (purple deadnettle); experiment: as above; format: in vivo, Lamium purpureum
Experimental: as §1, §2, §3, §4, §5, §6, §7

PAPRH (corn poppy) = experiment: as above; format: in vivo, Papaver rhoeas
Experimental: as §1, §2, §3, §4, §5, §6, §7

POLCO (wild buckwheat) = experiment: as above; format: in vivo, Polygonum convolvulus
Experimental: as §1, §2, §3, §4, §5, §6, §7

[9] = tested on: HORVS = Hordeum vulgare (spring barley); experiment: Postemergence herbicidal safening, greenhouse, visual injury; format: in vivo
Experimental: as §1, §2, §3, §4, §5, §6, §7

[10] = tested on: TRZAS = Triticum aestivum (spring wheat); experiment: as above; format: in vivo
Experimental: as §1, §2, §3, §4, §5, §6, §7

[11] = applied alone at 8.75 g/ha, listed as (1) K-salt
[12] = applied alone at 35 g/ha, listed as (1) K-salt
[13] = applied alone at 140 g/ha, listed as (1) K-salt

CCCCCC(C)OC(=O)COc1ccc(Cl)c2cccnc12 (centres unmarked) [Cloquintocet-mexyl, cloquintocet-mexyl]
0%: VIOTR Ob (observed injury) ([1]; applied alone at 1.0937 g/ha) | VIOTR Ob (observed injury) ([1]; applied alone at 1.1 g/ha) | VIOTR Ob (observed injury) ([1]; applied alone at 2.1875 g/ha) | VIOTR Ob (observed injury) ([1]; applied alone at 2.2 g/ha) | VIOTR Ob (observed injury) ([1]; applied alone at 4.375 g/ha) | VIOTR Ob (observed injury) ([1]; applied alone at 4.4 g/ha) | VIOTR Ob (observed injury) ([1]; applied alone at 8.75 g/ha) | VIOTR Ob (observed injury) ([1]; applied alone at 17.5 g/ha) | VIOTR Ob (observed injury) ([1]; applied alone at 35 g/ha) | VIOTR Ob (observed injury) ([1]; applied alone at 70 g/ha) | STEME Ob (observed injury) ([2]; applied alone at 1.1 g/ha) | STEME Ob (observed injury) ([2]; applied alone at 2.2 g/ha) | STEME Ob (observed injury) ([2]; applied alone at 4.4 g/ha) | STEME Ob (observed injury) ([2]; applied alone at 8.75 g/ha) | STEME Ob (observed injury) ([2]; applied alone at 17.5 g/ha) | STEME Ob (observed injury) ([2]; applied alone at 35 g/ha) | STEME Ob (observed injury) ([2]; applied alone at 70 g/ha) | VERPE Ob (observed injury) ([3]; applied alone at 1.0937 g/ha) | VERPE Ob (observed injury) ([3]; applied alone at 1.1 g/ha) | VERPE Ob (observed injury) ([3]; applied alone at 2.1875 g/ha) | VERPE Ob (observed injury) ([3]; applied alone at 2.2 g/ha) | VERPE Ob (observed injury) ([3]; applied alone at 4.375 g/ha) | VERPE Ob (observed injury) ([3]; applied alone at 4.4 g/ha) | VERPE Ob (observed injury) ([3]; applied alone at 8.75 g/ha) | VERPE Ob (observed injury) ([3]; applied alone at 17.5 g/ha) | VERPE Ob (observed injury) ([3]; applied alone at 35 g/ha) | VERPE Ob (observed injury) ([3]; applied alone at 70 g/ha) | MATCH Ob (observed injury) ([4]; applied alone at 1.0937 g/ha) | MATCH Ob (observed injury) ([4]; applied alone at 1.1 g/ha) | MATCH Ob (observed injury) ([4]; applied alone at 2.1875 g/ha) | MATCH Ob (observed injury) ([4]; applied alone at 2.2 g/ha) | MATCH Ob (observed injury) ([4]; applied alone at 4.375 g/ha) | MATCH Ob (observed injury) ([4]; applied alone at 4.4 g/ha) | MATCH Ob (observed injury) ([4]; applied alone at 8.75 g/ha) | MATCH Ob (observed injury) ([4]; applied alone at 17.5 g/ha) | MATCH Ob (observed injury) ([4]; applied alone at 35 g/ha) | MATCH Ob (observed injury) ([4]; applied alone at 70 g/ha) | GALAP Ob (observed injury) ([5]; applied alone at 1.1 g/ha) | GALAP Ob (observed injury) ([5]; applied alone at 2.2 g/ha) | GALAP Ob (observed injury) ([5]; applied alone at 4.4 g/ha) | GALAP Ob (observed injury) ([5]; applied alone at 8.75 g/ha) | GALAP Ob (observed injury) ([5]; applied alone at 17.5 g/ha) | GALAP Ob (observed injury) ([5]; applied alone at 35 g/ha) | GALAP Ob (observed injury) ([5]; applied alone at 70 g/ha) | KCHSC Ob (observed injury) ([6]; applied alone at 1.0937 g/ha) | KCHSC Ob (observed injury) ([6]; applied alone at 1.1 g/ha) | KCHSC Ob (observed injury) ([6]; applied alone at 2.1875 g/ha) | KCHSC Ob (observed injury) ([6]; applied alone at 2.2 g/ha) | KCHSC Ob (observed injury) ([6]; applied alone at 4.375 g/ha) | KCHSC Ob (observed injury) ([6]; applied alone at 4.4 g/ha) | KCHSC Ob (observed injury) ([6]; applied alone at 8.75 g/ha) | KCHSC Ob (observed injury) ([6]; applied alone at 17.5 g/ha) | KCHSC Ob (observed injury) ([6]; applied alone at 35 g/ha) | KCHSC Ob (observed injury) ([6]; applied alone at 70 g/ha) | SASKR Ob (observed injury) ([7]; applied alone at 1.0937 g/ha) | SASKR Ob (observed injury) ([7]; applied alone at 1.1 g/ha) | SASKR Ob (observed injury) ([7]; applied alone at 2.1875 g/ha) | SASKR Ob (observed injury) ([7]; applied alone at 2.2 g/ha) | SASKR Ob (observed injury) ([7]; applied alone at 4.375 g/ha) | SASKR Ob (observed injury) ([7]; applied alone at 4.4 g/ha) | SASKR Ob (observed injury) ([7]; applied alone at 8.75 g/ha) | SASKR Ob (observed injury) ([7]; applied alone at 17.5 g/ha) | SASKR Ob (observed injury) ([7]; applied alone at 35 g/ha) | SASKR Ob (observed injury) ([7]; applied alone at 70 g/ha) | LAMPU Ob (observed injury) ([8]; applied alone at 1.1 g/ha) | LAMPU Ob (observed injury) ([8]; applied alone at 2.2 g/ha) | LAMPU Ob (observed injury) ([8]; applied alone at 4.4 g/ha) | LAMPU Ob (observed injury) ([8]; applied alone at 8.75 g/ha) | LAMPU Ob (observed injury) ([8]; applied alone at 17.5 g/ha) | LAMPU Ob (observed injury) ([8]; applied alone at 35 g/ha) | LAMPU Ob (observed injury) ([8]; applied alone at 70 g/ha) | PAPRH Ob (observed injury) (PAPRH (corn poppy); applied alone at 1.1 g/ha) | PAPRH Ob (observed injury) (PAPRH (corn poppy); applied alone at 2.2 g/ha) | PAPRH Ob (observed injury) (PAPRH (corn poppy); applied alone at 4.4 g/ha) | PAPRH Ob (observed injury) (PAPRH (corn poppy); applied alone at 8.75 g/ha) | PAPRH Ob (observed injury) (PAPRH (corn poppy); applied alone at 17.5 g/ha) | PAPRH Ob (observed injury) (PAPRH (corn poppy); applied alone at 35 g/ha) | PAPRH Ob (observed injury) (PAPRH (corn poppy); applied alone at 70 g/ha) | POLCO Ob (observed injury) (POLCO (wild buckwheat); applied alone at 1.1 g/ha) | POLCO Ob (observed injury) (POLCO (wild buckwheat); applied alone at 2.2 g/ha) | POLCO Ob (observed injury) (POLCO (wild buckwheat); applied alone at 4.4 g/ha) | POLCO Ob (observed injury) (POLCO (wild buckwheat); applied alone at 8.75 g/ha) | POLCO Ob (observed injury) (POLCO (wild buckwheat); applied alone at 17.5 g/ha) | POLCO Ob (observed injury) (POLCO (wild buckwheat); applied alone at 35 g/ha) | POLCO Ob (observed injury) (POLCO (wild buckwheat); applied alone at 70 g/ha)

COc1c(Cl)ccc(-c2cc(N)c(Cl)c(C(=O)O)n2)c1F [Compound (1) K-salt, 4-amino-3-chloro-6-(4-chloro-2-fluoro-3-methoxyphenyl)pyridine-2-carboxylic acid]
52%: TRZAS Ob (observed injury) [10, 13]
100%: KCHSC Ob (observed injury) [6, 13]
38%: HORVS Ob (observed injury) [9, 12]
25%: HORVS Ob (observed injury) [9, 11]
11%: TRZAS Ob (observed injury) ([10]; applied alone at 70 g/ha, listed as (1) K-salt)
43%: TRZAS Ob (observed injury) [10, 12]
87%: VERPE Ob (observed injury) [3, 13] | SASKR Ob (observed injury) [7, 13]
45%: HORVS Ob (observed injury) [9, 13]
88%: MATCH Ob (observed injury) [4, 13]
63%: VIOTR Ob (observed injury) [1, 13]
15%: TRZAS Ob (observed injury) [10, 11]

O=C(O)COc1ccc(Cl)c2cccnc12 [Cloquintocet-acid, [(5-chloro-8-quinolinyl)oxy]acetic acid]
0%: HORVS Ob (observed injury) ([9]; applied alone at 0.55 g/ha) | HORVS Ob (observed injury) ([9]; applied alone at 1.1 g/ha) | HORVS Ob (observed injury) ([9]; applied alone at 2.2 g/ha) | HORVS Ob (observed injury) ([9]; applied alone at 4.4 g/ha) | TRZAS Ob (observed injury) ([10]; applied alone at 0.55 g/ha) | TRZAS Ob (observed injury) ([10]; applied alone at 1.1 g/ha) | TRZAS Ob (observed injury) ([10]; applied alone at 2.2 g/ha) | TRZAS Ob (observed injury) ([10]; applied alone at 4.4 g/ha) | LAMPU Ob (observed injury) ([8]; applied alone at 0.55 g/ha) | LAMPU Ob (observed injury) ([8]; applied alone at 1.1 g/ha) | LAMPU Ob (observed injury) ([8]; applied alone at 2.2 g/ha) | LAMPU Ob (observed injury) ([8]; applied alone at 4.4 g/ha) | PAPRH Ob (observed injury) (PAPRH (corn poppy); applied alone at 0.55 g/ha) | PAPRH Ob (observed injury) (PAPRH (corn poppy); applied alone at 1.1 g/ha) | PAPRH Ob (observed injury) (PAPRH (corn poppy); applied alone at 2.2 g/ha) | PAPRH Ob (observed injury) (PAPRH (corn poppy); applied alone at 4.4 g/ha)

Source: patent US9040458B2, “Safening composition of 6-(trisubstituded phenyl)-4-amino-2-pyridinecarboxylate herbicides and cloquintocet-mexyl for cereal crops” (Dow AgroSciences LLC, priority 2008, dated 2015)
